ChEMBL document CHEMBL3792317, “Novel tetrazoloquinoline-rhodanine conjugates: Highly efficient synthesis and biological evaluation” (Bioorg Med Chem Lett, 2016)
Converted amounts (≈) assume the structure as drawn. The source made the active and inactive calls. The calls are words filed in the database; no cut-off is given here.

Legend:
[1] = test system: Mycobacterium bovis BCG str. ATCC 35743; assay: Antitubercular activity against dormant Mycobacterium bovis BCG ATCC 35743 at 30 ug/ml incubated for 40 mins by XTT Reduction Menadione Assay; format: functional
[2] = test system: Mycobacterium tuberculosis; assay: Antitubercular activity against active Mycobacterium tuberculosis H37Ra ATCC 25177 incubated for 40 mins by XTT Reduction Menadione Assay; format: functional; settings: H37Ra ATCC 25177, 40 min
[3] = Selectivity index, ratio of GI50 for human HeLa cells to MIC for Mycobacterium bovis BCG ATCC 35743; format: toxicity, cell-based; settings: read-out: Selectivity Index
[4] = Cytotoxicity against human THP1 cells after 48 hrs by MTT assay; format: cell-based, THP-1; settings: for GI50 at 48 h: THP1 cells; for GI90: thp-1, 48 h
[5] = test system: Mycobacterium tuberculosis; assay: Antitubercular activity against Mycobacterium tuberculosis H37Ra ATCC 25177 at 10 ug/ml incubated for 40 mins by XTT Reduction Menadione Assay; format: functional; settings: H37Ra ATCC 25177, 40 min, read-out: GI
[6] = test system: Staphylococcus aureus; assay: Antibacterial activity against Staphylococcus aureus after 18 hrs by broth dilution method; format: functional
[7] = Selectivity index, ratio of GI50 for human HeLa cells to MIC for Mycobacterium tuberculosis H37Ra ATCC 25177; format: toxicity, cell-based; settings: read-out: Selectivity Index
[8] = test system: Cryptococcus neoformans; assay: Antifungal activity against Cryptococcus neoformans NCIM 576 after 48 hrs by agar cup plate method; format: functional; settings: NCIM 576, 48 h
[9] = test system: Mycobacterium bovis BCG str. ATCC 35743; assay: Antitubercular activity against dormant Mycobacterium bovis BCG ATCC 35743 at 3 ug/ml incubated for 40 mins by XTT Reduction Menadione Assay; format: functional
[10] = test system: Pseudomonas fluorescens; assay: Antibacterial activity against Pseudomonas fluorescens after 18 hrs by broth dilution method; format: functional
[11] = test system: HeLa; assay: (§1) Cytotoxicity against human HeLa cells after 48 hrs by MTT assay; format: cell-based; settings: hela, 48 h
[12] = as §1; format: cell-based; settings: HeLa cells
[13] = Selectivity index, ratio of GI50 for human THP1 cells to MIC for Mycobacterium tuberculosis H37Ra ATCC 25177; format: toxicity, cell-based, THP-1; settings: read-out: Selectivity Index
[14] = Cytotoxicity against human PANC1 cells after 48 hrs by MTT assay; format: cell-based, PANC-1; settings: for GI50 at 48 h: PANC1 cells; for GI90: panc-1, 48 h
[15] = test system: Mycobacterium tuberculosis; assay: Antitubercular activity against Mycobacterium tuberculosis H37Ra ATCC 25177 incubated for 40 mins by XTT Reduction Menadione Assay; format: functional; settings: H37Ra ATCC 25177, 40 min
[16] = Selectivity index, ratio of GI50 for human PANC1 cells to MIC for Mycobacterium tuberculosis H37Ra ATCC 25177; format: toxicity, cell-based, PANC-1; settings: read-out: Selectivity Index
[17] = test system: Mycobacterium bovis BCG str. ATCC 35743; assay: Antitubercular activity against dormant Mycobacterium bovis BCG ATCC 35743 incubated for 40 mins by XTT Reduction Menadione Assay; format: functional
[18] = test system: Candida albicans; assay: Antifungal activity against Candida albicans NCIM 3471 after 48 hrs by agar cup plate method; format: functional; settings: NCIM 3471, 48 h
[19] = test system: Bacillus subtilis; assay: Antibacterial activity against Bacillus subtilis after 18 hrs by broth dilution method; format: functional
[20] = test system: A549; assay: (§2) Cytotoxicity against human A549 cells after 48 hrs by MTT assay; format: cell-based; settings: a549, 48 h
[21] = as §2; format: cell-based; settings: A549 cells
[22] = Selectivity index, ratio of GI50 for human A549 cells to MIC for Mycobacterium tuberculosis H37Ra ATCC 25177; format: toxicity, cell-based; settings: read-out: Selectivity Index
[23] = Selectivity index, ratio of GI50 for human PANC1 cells to MIC for Mycobacterium bovis BCG ATCC 35743; format: toxicity, cell-based, PANC-1; settings: read-out: Selectivity Index
[24] = Antitubercular activity against Mycobacterium bovis BCG ATCC 35743 incubated for 40 mins by XTT Reduction Menadione Assay; format: functional, Mycobacterium bovis BCG str. ATCC 35743; settings: Mycobacterium tuberculosis variant bovis BCG, ATCC 35743, 40 min
[25] = test system: Escherichia coli; assay: Antibacterial activity against Escherichia coli after 18 hrs by broth dilution method; format: functional
[26] = test system: Mycobacterium bovis BCG str. ATCC 35743; assay: Antitubercular activity against active Mycobacterium bovis BCG ATCC 35743 incubated for 40 mins by XTT Reduction Menadione Assay; format: functional
[27] = test system: Mycobacterium bovis BCG str. ATCC 35743; assay: Antitubercular activity against dormant Mycobacterium bovis BCG ATCC 35743 at 10 ug/ml incubated for 40 mins by XTT Reduction Menadione Assay; format: functional
[28] = test system: Aspergillus flavus; assay: Antifungal activity against Aspergillus flavus NCIM 539 after 48 hrs by agar cup plate method; format: functional; settings: NCIM 539, 48 h
[29] = test system: Mycobacterium tuberculosis; assay: Antitubercular activity against dormant Mycobacterium tuberculosis H37Ra ATCC 25177 incubated for 40 mins by XTT Reduction Menadione Assay; format: functional; settings: H37Ra ATCC 25177, 40 min
[30] = Selectivity index, ratio of GI50 for human A549 cells to MIC for Mycobacterium bovis BCG ATCC 35743; format: toxicity, cell-based; settings: read-out: Selectivity Index
[31] = test system: Mycobacterium tuberculosis; assay: Antitubercular activity against Mycobacterium tuberculosis H37Ra ATCC 25177 at 3 ug/ml incubated for 40 mins by XTT Reduction Menadione Assay; format: functional; settings: H37Ra ATCC 25177, 40 min, read-out: GI
[32] = test system: Mycobacterium tuberculosis; assay: Antitubercular activity against Mycobacterium tuberculosis H37Ra ATCC 25177 at 30 ug/ml incubated for 40 mins by XTT Reduction Menadione Assay; format: functional; settings: H37Ra ATCC 25177, 40 min, read-out: GI
[33] = test system: Fusarium oxysporum; assay: Antifungal activity against Fusarium oxysporum NCIM 1332 after 48 hrs by agar cup plate method; format: functional; settings: NCIM 1332, 48 h
[34] = test system: Aspergillus niger; assay: Antifungal activity against Aspergillus niger NCIM 1196 after 48 hrs by agar cup plate method; format: functional; settings: NCIM 1196, 48 h
[35] = Selectivity index, ratio of GI50 for human THP1 cells to MIC for Mycobacterium bovis BCG ATCC 35743; format: toxicity, cell-based, THP-1; settings: read-out: Selectivity Index
[36] = test system: Cryptococcus neoformans; assay: Antifungal activity against Cryptococcus neoformans NCIM 576 up to 200 ug/ml after 48 hrs by agar cup plate method; format: functional, organism-based
[37] = test system: Fusarium oxysporum; assay: Antifungal activity against Fusarium oxysporum NCIM 1332 up to 200 ug/ml after 48 hrs by agar cup plate method; format: functional, organism-based

Compound	growth inhibition (GI) [1] [%]	IC90 [2] [µg/mL]	GI50 at 48 h [4] [µg/mL]	GI90 [4] [µg/mL]	inhibition of growth at 10 µg/mL [5] [%]	MIC [8] [µg/mL]	growth inhibition (GI) [9] [%]	GI50 at 48 h [12] [µg/mL]	GI50 at 48 h [14] [µg/mL]	MIC [15] [µg/mL]	MIC [18] [µg/mL]	GI50 at 48 h [21] [µg/mL]	MIC [24] [µg/mL]	growth inhibition (GI) [27] [%]	MIC [28] [µg/mL]	IC90 [29] [µg/mL]	inhibition of growth at 3 µg/mL [31] [%]	inhibition of growth at 30 µg/mL [32] [%]	MIC [33] [µg/mL]	MIC [34] [µg/mL]	also measured
Cc1ccc2cc(/C=C3\SC(=S)NC3=O)c3nnnn3c2c1	97.8	5.5 (≈ 16.8 µM)	> 100	> 100	99.7	100 (≈ 305 µM)	100	> 100	> 100	4.5 (≈ 13.7 µM)	150 (≈ 458 µM)	> 100	2.01 (≈ 6.14 µM)	100	125 (≈ 382 µM)	4.5 (≈ 13.7 µM)	82.9	98	150 (≈ 458 µM)	100 (≈ 305 µM)	selectivity ratio [3]: 49.8; MIC [6]: 205 µg/mL (≈ 626 µM); selectivity ratio [7]: 22.2; MIC [10]: 211 µg/mL (≈ 643 µM); GI90 [11]: > 100 µg/mL; selectivity ratio [13]: 22.2; GI90 [14]: > 100 µg/mL; selectivity ratio [16]: 22.2; IC90 [17]: 2.01 µg/mL (≈ 6.14 µM); MIC [19]: 188 µg/mL (≈ 574 µM); GI90 [20]: > 100 µg/mL; selectivity ratio [22]: 22.2; selectivity ratio [23]: 49.8; MIC [25]: 208 µg/mL (≈ 636 µM); IC90 [26]: 2.25 µg/mL (≈ 6.87 µM); selectivity ratio [30]: 49.8; selectivity ratio [35]: 49.8
Cc1ccc2cc(/C=C3\SC(=S)N(CC(=O)O)C3=O)c3nnnn3c2c1	50.6	> 250	> 100	> 100	49.2	150 (≈ 389 µM)	-4.5	> 100	> 100	159 (≈ 413 µM)	75 (≈ 195 µM)	> 100	24.2 (≈ 62.7 µM)	19.2	50 (≈ 130 µM)	159 (≈ 413 µM)	31.7	65	100 (≈ 259 µM)	150 (≈ 389 µM)	GI90 [11]: > 100 µg/mL; GI90 [14]: > 100 µg/mL; IC90 [17]: 24.2 µg/mL (≈ 62.7 µM); GI90 [20]: > 100 µg/mL
CO[C@H]1/C=C/O[C@@]2(C)Oc3c(C)c(O)c4c(O)c(c(/C=N/N5CCN(C)CC5)c(O)c4c3C2=O)NC(=O)/C(C)=C\C=C\[C@H](C)[C@H](O)[C@@H](C)[C@@H](O)[C@@H](C)[C@H](OC(C)=O)[C@@H]1C [RIFAMPIN]	–	0.05 (≈ 0.0608 µM)	> 100	–	–	–	–	> 100	> 100	0.72 (≈ 0.875 µM)	–	> 100	0.89 (≈ 1.08 µM)	–	–	0.72 (≈ 0.875 µM)	–	–	–	–	selectivity ratio [3]: > 112; selectivity ratio [7]: > 139; selectivity ratio [13]: > 139; selectivity ratio [16]: > 139; IC90 [17]: 0.89 µg/mL (≈ 1.08 µM); selectivity ratio [22]: > 139; selectivity ratio [23]: > 112; IC90 [26]: 0.061 µg/mL (≈ 0.0741 µM); selectivity ratio [30]: > 112; selectivity ratio [35]: > 112
COc1ccc2c(c1)cc(/C=C1\SC(=S)N(CCC(=O)O)C1=O)c1nnnn12	23.9	–	–	–	27.9	–	8.94	–	–	> 250	150 (≈ 361 µM)	–	> 250	16	150 (≈ 361 µM)	–	-0.42	15.9	125 (≈ 301 µM)	150 (≈ 361 µM)	MIC [36]: inactive
Cc1ccc2cc(/C=C3\SC(=S)N(CCC(=O)O)C3=O)c3nnnn3c2c1	41.2	45 (≈ 113 µM)	> 100	> 100	30	50 (≈ 125 µM)	4.55	> 100	> 100	42.2 (≈ 106 µM)	25 (≈ 62.6 µM)	> 100	45.4 (≈ 114 µM)	12.3	50 (≈ 125 µM)	42.2 (≈ 106 µM)	16.6	60.3	50 (≈ 125 µM)	100 (≈ 250 µM)	GI90 [11]: > 100 µg/mL; GI90 [14]: > 100 µg/mL; IC90 [17]: 45.4 µg/mL (≈ 114 µM); GI90 [20]: > 100 µg/mL
COc1ccc2c(c1)cc(/C=C1\SC(=S)NC1=O)c1nnnn12	32.5	–	–	–	17.6	150 (≈ 437 µM)	12.5	–	–	> 250	150 (≈ 437 µM)	–	> 250	17.1	150 (≈ 437 µM)	–	18.9	-5.72	–	100 (≈ 291 µM)	MIC [6]: 144 µg/mL (≈ 419 µM); MIC [10]: 169 µg/mL (≈ 493 µM); MIC [37]: inactive; MIC [19]: 96.8 µg/mL (≈ 282 µM); MIC [25]: 198 µg/mL (≈ 577 µM)
COc1ccc2cc(/C=C3\SC(=S)NC3=O)c3nnnn3c2c1	3.63	–	–	–	15.6	–	-3.47	–	–	> 250	150 (≈ 437 µM)	–	> 250	-1.87	100 (≈ 291 µM)	–	1.97	14.1	100 (≈ 291 µM)	25 (≈ 72.8 µM)	MIC [6]: 247 µg/mL (≈ 721 µM); MIC [10]: 157 µg/mL (≈ 457 µM); MIC [36]: inactive; MIC [19]: 246 µg/mL (≈ 716 µM); MIC [25]: 102 µg/mL (≈ 298 µM)
COc1ccc2cc(/C=C3\SC(=S)N(CC(=O)O)C3=O)c3nnnn3c2c1	25.6	159 (≈ 396 µM)	> 100	> 100	13.6	175 (≈ 436 µM)	12.7	> 100	> 100	92.3 (≈ 230 µM)	100 (≈ 249 µM)	> 100	121 (≈ 302 µM)	37.3	150 (≈ 374 µM)	92.3 (≈ 230 µM)	3.59	97.2	–	150 (≈ 374 µM)	selectivity ratio [3]: 4.13; selectivity ratio [7]: 1.1; GI90 [11]: > 100 µg/mL; selectivity ratio [13]: 1.1; GI90 [14]: > 100 µg/mL; MIC [37]: inactive; selectivity ratio [16]: 1.1; GI90 [20]: > 100 µg/mL; selectivity ratio [22]: 1.1; selectivity ratio [23]: 4.13; selectivity ratio [30]: 4.13; selectivity ratio [35]: 4.13
